From patent US20110190123A1, “SLOW-RELEASE FORMULATIONS CONTAINING QUILLAY EXTRACTS, FOR CONTROLLING WHEAT TAKE-ALL DISEASE” (priority 2008, published 2011)

Key:
[1] = test system: Ggt; assay: Plant pot experiments, control of take-all in wheat (Take-All Index); assay type: in vivo, Gaeumannomyces graminis
Experimental: Agronomic evaluation of control effectiveness of the formulations developed on the Ggt fungus was conducted through the establishment of 26 experiments in plant pots. These experiments allowed to evaluate new formulations, or correct defective aspects of the formulations developed. Evaluation methodology was made under greenhouse and awning conditions, considering: soil use of Yerbas Buenas ([…] Region VII), which was sterilized by autoclave and inoculated with Ggt grown in oat grains during 40 days. Soil was placed in PVC plant pots arranged on a wooden plate, where it was seeded with a wheat seed of cv. Dalcahue-INIA.
In these experiences two sample treatments were used (with and without inoculum) and one commercial sample Silthiofam (Latitude®, Monsanto) in dosis of 2 L/ton of seed to compare the effectiveness of different slow release formulations or “Slow release” based on quillay extract.

[2] = test system: Gaeumannomyces graminis; assay: Field tests in Region IX of Chile, root rot in wheat plants; assay type: in vivo; conditions: four field experiments, highly rainy season
Source text: This invention refers to natural fungicides used in seed treatment or soil treatment, that are obtained from quillay extract formulation, rich in saponin concentrations, to which synthetic polymers have been adhered (latex and resins) allowing its slow release in the soil, and which efficiency and control have been tested at a plant pot and field experiment level on fungus Gaeumannomyces graminis, which is the cause of take-all of wheat.

[3] = FIG. 6 experiment, Oct. 3, 2005
[4] = average of plant pot experiments

C=CCNC(=O)c1c([Si](C)(C)C)sc(C)c1C [Silthiofam]
control with respect to the inoculated sample ([1]; FIG. 2 experiment, seed treatment, Silthiofam 2 L/ton of seed): 44% | control with respect to the inoculated sample ([1]; FIG. 3 experiment, seed treatments, QL 1000 4 L per ha): 50.8% | Take-All Index (TAI) [1, 3]: 28 | control with respect to the non-treated sample [1, 3]: 71% | Take-All Index (TAI), average among all experiences [1, 4]: 24.6 | average control level with respect to the inoculated sample [1, 4]: 67.5% | effectiveness in field experiments [2]: did not show effectiveness
